{"source": "patent US10183938B2", "about": "“Geminal substituted quinuclidine amide compounds as agonists of α-7 nicotonic acetylcholine receptors” (AXOVANT SCIENCES GMBH, priority 2014, dated 2019)", "note": "Counter-ions that a name gives are not always drawn.", "data": [{"biological_target": "human α7 nAChRs transiently expressed in Xenopus laevis oocytes (Homo sapiens (Human), UniProt P36544)", "sequence (P36544 23-502 limits assumed)": "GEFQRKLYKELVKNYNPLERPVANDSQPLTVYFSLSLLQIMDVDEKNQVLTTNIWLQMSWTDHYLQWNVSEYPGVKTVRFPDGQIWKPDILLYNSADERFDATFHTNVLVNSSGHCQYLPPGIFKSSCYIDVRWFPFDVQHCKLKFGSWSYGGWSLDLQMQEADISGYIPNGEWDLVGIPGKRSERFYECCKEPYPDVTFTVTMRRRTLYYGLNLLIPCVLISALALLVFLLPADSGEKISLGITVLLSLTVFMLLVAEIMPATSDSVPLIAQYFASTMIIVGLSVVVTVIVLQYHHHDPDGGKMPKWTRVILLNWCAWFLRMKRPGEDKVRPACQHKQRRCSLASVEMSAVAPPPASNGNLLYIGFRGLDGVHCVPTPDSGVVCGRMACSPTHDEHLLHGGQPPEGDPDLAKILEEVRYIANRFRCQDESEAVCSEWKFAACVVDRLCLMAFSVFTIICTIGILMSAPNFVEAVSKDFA", "assay": "Oocyte electrophysiology screen (TEVC)", "format": "cell-based", "settings": "0.01 mM test compound, peak current relative to 0.2 mM ACh", "procedure": "(§1) Oocyte Electrophysiology Screen (% ACh @ 10 μM Oocyte)\n(§2) The Oocyte Electrophysiology Screen studies were performed under contract by HiQScreen Geneva, Switzerland. All experiments were carried out at human α7 nAChRs transiently expressed in Xenopus laevis oocytes using the method of cDNA expression. Currents evoked by acetylcholine or other agonist ligands were recorded using the standard two-electrode voltage-clamp configuration (TEVC). X. laevis oocytes were prepared and injected using standard procedures. Briefly, ovaries were harvested from X. laevis females that were deeply anesthetized and pithed following the animal rights rule from the Geneva canton. A small piece of ovary was isolated for immediate preparation while the remaining part was placed at 4° C. in a sterile Barth solution containing in mM: NaCl 88, KCl 1, NaHCO3 2.4, HEPES 10, MgSO4.7H2O 0.82, Ca(NO3)2.4H2O 0.33, CaCl2.6H2O 0.41, at pH 7.4, and supplemented with 20 μg/mL of kanamycin, 100 unit/mL penicillin and 100 μg/mL streptomycin. […] Cells were held at −80 mV. Data were filtered at 10 Hz, captured at 100 Hz and analyzed using proprietary data acquisition and analysis software running under Matlab (Mathworks Inc.).\n(§3) Experimental Protocol and Analysis\n(§4) After establishing a baseline transmembrane current, acetylcholine (ACh) was applied for 5 seconds at a concentration of 0.2 mM to establish a control ACh-evoked current response. Following a wash period of 90 s in OR2 medium (free of ACh), cells were then exposed for 30 s to the test compound applied at 0.01 mM. The same reference ACh test pulse was immediately given at the end of the compound exposure and again after 90 s of recovery in OR2 Medium (free of ACh or test compound). All data were determined in triplicate. The response evoked by the test compound was expressed as a percentage of that evoked by ACh: Response (% ACh)=100×(Itest/IACh) where Itest is the peak inward current measured during exposure to 0.01 mM of test compound and IACh is the peak inward current measured in the presence of ACh.", "units": {"% ACh @ 10 μM Oocyte": "% ACh"}, "values": [{"smiles": "O=C(NC1C2CCN(CC2)C12CC2)c1cc2cccc(Cl)c2s1", "note": "(single isomer, unassigned; enantiomer2) [56b, 7-chloro-N-(1′-azaspiro[cyclopropane-1,2′-bicyclo[2.2.2]octan]-3′-yl)benzo[b]thiophene-2-carboxamide-enantiomer2]", "% ACh @ 10 μM Oocyte": 0}, {"smiles": "O=C(NC1C2CCN(CC2)C12CC2)c1ccc2ccsc2c1", "note": "(single isomer, unassigned; enantiomer2) [58b, N-(1′-azaspiro[cyclopropane-1,2′-bicyclo[2.2.2]octan]-3′-yl)benzo[b]thiophene-6-carboxamide-enantiomer2]", "% ACh @ 10 μM Oocyte": 5}, {"smiles": "O=C(NC1C2CCN(CC2)C12CC2)c1ccc2occc2c1", "note": "(single isomer, unassigned; enantiomer2) [59b, N-(1′-azaspiro[cyclopropane-1,2′-bicyclo[2.2.2]octan]-3′-yl)benzofuran-5-carboxamide-enantiomer2]", "% ACh @ 10 μM Oocyte": 27}, {"smiles": "O=C(NC1C2CCN(CC2)C12CC2)c1cc2cccc(C(F)(F)F)c2s1", "note": "(single isomer, unassigned; enantiomer2) [60b, N-(1′-azaspiro[cyclopropane-1,2′-bicyclo[2.2.2]octan]-3′-yl)-7-(trifluoromethyl)benzo[b]thiophene-2-carboxamide-enantiomer2]", "% ACh @ 10 μM Oocyte": 1}, {"smiles": "O=C(NC1C2CCN(CC2)C12CC2)c1cc2ccc(F)cc2s1", "note": "(single isomer, unassigned; enantiomer2) [61b, 6-fluoro-N-(1′-azaspiro[cyclopropane-1,2′-bicyclo[2.2.2]octan]-3′-yl)benzo[b]thiophene-2-carboxamide-enantiomer2]", "% ACh @ 10 μM Oocyte": 1}, {"smiles": "O=C(NC1C2CCN(CC2)C12CC2)c1cc2ccc(C(F)(F)F)cc2s1", "note": "(single isomer, unassigned; enantiomer2) [63b, N-(1′-azaspiro[cyclopropane-1,2′-bicyclo[2.2.2]octan]-3′-yl)-6-(trifluoromethyl)benzo[b]thiophene-2-carboxamide-enantiomer2]", "% ACh @ 10 μM Oocyte": 3}, {"smiles": "O=C(NC1C2CCN(CC2)C12CC2)c1cc2cc(F)ccc2s1", "note": "(single isomer, unassigned; enantiomer2) [64b, 5-fluoro-N-(1′-azaspiro[cyclopropane-1,2′-bicyclo[2.2.2]octan]-3′-yl)benzo[b]thiophene-2-carboxamide-enantiomer2]", "% ACh @ 10 μM Oocyte": 1}, {"smiles": "O=C(NC1C2CCN(CC2)C12CC2)c1cc2cc(Cl)c(Cl)cc2s1", "note": "(single isomer, unassigned; enantiomer2) [67b, 5,6-dichloro-N-(1′-azaspiro[cyclopropane-1,2′-bicyclo[2.2.2]octan]-3′-yl)benzo[b]thiophene-2-carboxamide-enantiomer2 hydrochloride]", "% ACh @ 10 μM Oocyte": 1}, {"smiles": "CC1(C)[C@H](NC(=O)c2cc3ccccc3s2)C2CCN1CC2", "note": "[(R)-1, (R)—N-(2,2-dimethylquinuclidin-3-yl)benzo[b]thiophene-2-carboxamide hydrochloride]", "% ACh @ 10 μM Oocyte": 401}, {"smiles": "COc1ccc2sc(C(=O)N[C@@H]3C4CCN(CC4)C3(C)C)cc2c1", "note": "[(R)-21, (R)—N-(2,2-dimethylquinuclidin-3-yl)-5-methoxybenzo[b]thiophene-2-carboxamide hydrochloride]", "% ACh @ 10 μM Oocyte": 73}]}, {"biological_target": "human α7 nAChRs transiently expressed in Xenopus laevis oocytes (Homo sapiens (Human), UniProt P36544)", "assay": "Oocyte electrophysiology screen (TEVC)", "format": "cell-based", "settings": "0.01 mM test compound, peak current relative to 0.2 mM ACh; hydrochloride", "procedure": "as §1, §2, §3, §4", "units": {"% ACh @ 10 μM Oocyte": "% ACh"}, "values": [{"smiles": "O=C(NC1C2CCN(CC2)C12CC2)c1cc2cc(C3CC3)ccc2s1", "note": "(single isomer, unassigned; enantiomer1) [72a, 5-cyclopropyl-N-(1′-azaspiro[cyclopropane-1,2′-bicyclo[2.2.2]octan]-3′-yl)benzo[b]thiophene-2-carboxamide-enantiomer1 hydrochloride]", "% ACh @ 10 μM Oocyte": 188}, {"smiles": "COc1ccc2cc(C(=O)NC3C4CCN(CC4)C34CC4)sc2c1", "note": "(single isomer, unassigned; enantiomer1) [73a, 6-methoxy-N-(1′-azaspiro[cyclopropane-1,2′-bicyclo[2.2.2]octan]-3′-yl)benzo[b]thiophene-2-carboxamide-enantiomer1 hydrochloride]", "% ACh @ 10 μM Oocyte": 1036}, {"smiles": "COc1ccc2sc(C(=O)NC3C4CCN(CC4)C34CC4)cc2c1", "note": "(single isomer, unassigned; enantiomer1) [74a, 5-methoxy-N-(1′-azaspiro[cyclopropane-1,2′-bicyclo[2.2.2]octan]-3′-yl)benzo[b]thiophene-2-carboxamide-enantiomer1 hydrochloride]", "% ACh @ 10 μM Oocyte": 32}, {"smiles": "CC1(C)C(NC(=O)c2cc3ccccc3s2)C2CCN1CC2", "note": "(single isomer, unassigned; enantiomer2) [1b, N-(2,2-dimethylquinuclidin-3-yl)benzo[b]thiophene-2-carboxamide-enantiomer2 hydrochloride]", "% ACh @ 10 μM Oocyte": 2}, {"smiles": "O=C(NC1C2CCN(CC2)C12CC2)c1cc2ccccc2s1", "note": "(single isomer, unassigned; enantiomer2) [54b, N-(1′-azaspiro[cyclopropane-1,2′-bicyclo[2.2.2]octan]-3′-yl)benzo[b]thiophene-2-carboxamide-enantiomer2 hydrochloride]", "% ACh @ 10 μM Oocyte": 1319}, {"smiles": "O=C(NC1C2CCN(CC2)C12CC2)c1cc2cccc(F)c2s1", "note": "(single isomer, unassigned; enantiomer2) [57b, 7-fluoro-N-(1′-azaspiro[cyclopropane-1,2′-bicyclo[2.2.2]octan]-3′-yl)benzo[b]thiophene-2-carboxamide-enantiomer2 hydrochloride]", "% ACh @ 10 μM Oocyte": 4}, {"smiles": "Nc1ccc2cc(C(=O)NC3C4CCN(CC4)C34CC4)sc2c1", "note": "(single isomer, unassigned; enantiomer2) [62b, 6-amino-N-(1′-azaspiro[cyclopropane-1,2′-bicyclo[2.2.2]octan]-3′-yl)benzo[b]thiophene-2-carboxamide-enantiomer2 hydrochloride]", "% ACh @ 10 μM Oocyte": 995}, {"smiles": "O=C(NC1C2CCN(CC2)C12CC2)c1cc2ccc(Cl)cc2s1", "note": "(single isomer, unassigned; enantiomer2) [65b, 6-chloro-N-(1′-azaspiro[cyclopropane-1,2′-bicyclo[2.2.2]octan]-3′-yl)benzo[b]thiophene-2-carboxamide-enantiomer2 hydrochloride]", "% ACh @ 10 μM Oocyte": 1}, {"smiles": "Cc1ccc2cc(C(=O)NC3C4CCN(CC4)C34CC4)sc2c1", "note": "(single isomer, unassigned; enantiomer2) [68b, 6-methyl-N-(1′-azaspiro[cyclopropane-1,2′-bicyclo[2.2.2]octan]-3′-yl)benzo[b]thiophene-2-carboxamide-enantiomer2 hydrochloride]", "% ACh @ 10 μM Oocyte": 5}, {"smiles": "Cc1ccc2sc(C(=O)NC3C4CCN(CC4)C34CC4)cc2c1", "note": "(single isomer, unassigned; enantiomer2) [69b, 5-methyl-N-(1′-azaspiro[cyclopropane-1,2′-bicyclo[2.2.2]octan]-3′-yl)benzo[b]thiophene-2-carboxamide-enantiomer2 hydrochloride]", "% ACh @ 10 μM Oocyte": 1}, {"smiles": "O=C(NC1C2CCN(CC2)C12CC2)c1cc2cc(C(F)(F)F)ccc2s1", "note": "(single isomer, unassigned; enantiomer2) [70b, N-(1′-azaspiro[cyclopropane-1,2′-bicyclo[2.2.2]octan]-3′-yl)-5-(trifluoromethyl)benzo[b]thiophene-2-carboxamide-enantiomer2 hydrochloride]", "% ACh @ 10 μM Oocyte": 1}, {"smiles": "O=C(NC1C2CCN(CC2)C12CC2)c1cc2ccc(C3CC3)cc2s1", "note": "(single isomer, unassigned; enantiomer2) [71b, 6-cyclopropyl-N-(1′-azaspiro[cyclopropane-1,2′-bicyclo[2.2.2]octan]-3′-yl)benzo[b]thiophene-2-carboxamide-enantiomer2 hydrochloride]", "% ACh @ 10 μM Oocyte": 2}, {"smiles": "O=C(NC1C2CCN(CC2)C12CC2)c1cc2cc(C3CC3)ccc2s1", "note": "(single isomer, unassigned; enantiomer2) [72b, 5-cyclopropyl-N-(1′-azaspiro[cyclopropane-1,2′-bicyclo[2.2.2]octan]-3′-yl)benzo[b]thiophene-2-carboxamide-enantiomer2 hydrochloride]", "% ACh @ 10 μM Oocyte": 1}, {"smiles": "COc1ccc2cc(C(=O)NC3C4CCN(CC4)C34CC4)sc2c1", "note": "(single isomer, unassigned; enantiomer2) [73b, 6-methoxy-N-(1′-azaspiro[cyclopropane-1,2′-bicyclo[2.2.2]octan]-3′-yl)benzo[b]thiophene-2-carboxamide-enantiomer2 hydrochloride]", "% ACh @ 10 μM Oocyte": 1}, {"smiles": "COc1ccc2sc(C(=O)NC3C4CCN(CC4)C34CC4)cc2c1", "note": "(single isomer, unassigned; enantiomer2) [74b, 5-methoxy-N-(1′-azaspiro[cyclopropane-1,2′-bicyclo[2.2.2]octan]-3′-yl)benzo[b]thiophene-2-carboxamide-enantiomer2 hydrochloride]", "% ACh @ 10 μM Oocyte": 4}]}]}
